Measured values taken from patent US8686113B2 (priority 2009, dated 2014).
Values after ≈ are worked out from the molar mass of the structure shown. Read-outs that look alike come from different tables or passages of the source. Non-standard residues stand in square brackets, D forms with d. Residues, ends and D or L forms follow the SMILES beside them. No end group written: not given here. *: point of attachment. Arg(NO2) = N=C(NCCC[C@H](N)C(=O)O)N[N+](=O)[O-]; hArg = N=C(N)NCCCC[C@H](N)C(=O)O; Agp = N=C(N)NC[C@H](N)C(=O)O; dOrn = NCCC[C@@H](N)C(=O)O; Orn = NCCC[C@H](N)C(=O)O; For = O=C*

Assays:
E. coli BL21 A1 = type: cell-based, Escherichia coli
Method in brief: (§1)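 Broth microdilution in 1% TSB with twofold peptide series, final 128 μg/mL to 62.5 ng/mL, against 5×10^6 bacteria/mL stock suspension added 1:1. Incubated 20 h at 37 °C, growth read by absorbance at 595 nm; MIC is the lowest concentration with no growth, determined in triplicate.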

M. luteus 10240 = assay: Growth inhibition assay (microdilution MIC); type: cell-based, Micrococcus luteus
Method in brief: as §1

Molecule: CC[C@H](C)[C@H](NC(=O)[C@H](CCCCNC(=N)N)NC(=O)[C@H](CCCNC(=N)N)NC(=O)[C@@H]1CCCN1C(=O)[C@@H]1CCCN1C(=O)[C@H](CCCNC(=N)N)NC(=O)[C@@H]1CCCN1C(=O)[C@H](CCCNC(=N)N)NC(=O)[C@@H]1CCCN1C(=O)[C@H](CC(C)C)NC(=O)[C@H](Cc1ccc(O)cc1)NC(=O)[C@@H]1CCCN1C(=O)[C@@H]1CCCN1C(=O)[C@H](CCCCN)NC(=O)[C@H](CC(=O)O)NC(=O)[C@@H](N)C(C)C)C(=O)N[C@@H](Cc1ccc(O)cc1)C(=O)N[C@@H](CC(N)=O)C(=O)N[C@@H](CNC(=N)N)C(N)=O [compound 68] (H-VDKPPYLPRPRPPR[hArg]IYN[Agp]-NH2)
- MIC E. coli BL21 A1 (E. coli BL21 A1; BL21, 20 h): 4 µg/mL (≈ 1.68 µM)
- MIC M. luteus 10240 (M. luteus 10240; 10240, 20 h): 4 µg/mL (≈ 1.68 µM)

Molecule: CC[C@H](C)[C@H](NC(=O)[C@H](CCCNC(=N)N)NC(=O)[C@H](CCCNC(=N)N)NC(=O)[C@@H]1CCCN1C(=O)[C@@H]1CCCN1C(=O)[C@H](CCCNC(=N)N)NC(=O)[C@@H]1CCCN1C(=O)[C@H](CCCNC(=N)N)NC(=O)[C@@H]1CCCN1C(=O)[C@H](CC(C)C)NC(=O)[C@H](Cc1ccc(O)cc1)NC(=O)[C@@H]1CCCN1C(=O)[C@@H]1CCCN1C(=O)[C@H](CCCCN)NC(=O)[C@H](CC(=O)O)NC(=O)[C@@H](NC=O)C(C)C)C(=O)N[C@@H](Cc1ccc(O)cc1)C(=O)N[C@@H](CC(N)=O)C(=O)N[C@@H](CCCNC(=N)N)C(=O)O [SEQ ID NO. 81] (For-VDKPPYLPRPRPPRRIYNR-OH)
- MIC E. coli BL21 A1 (E. coli BL21 A1; BL21, 20 h): 128 µg/mL (≈ 52.9 µM)
- MIC M. luteus 10240 (M. luteus 10240; 10240, 20 h): 32 µg/mL (≈ 13.2 µM)

Molecule: H-VDKPPYLPRPHPPRRIYNRN-OH [compound 9]
- MIC E. coli BL21 A1 (E. coli BL21 A1; BL21, 20 h): 64 µg/mL
- MIC M. luteus 10240 (M. luteus 10240; 10240, 20 h): 16 µg/mL

Molecule: H-DKPPYLPRPRPPRRIYNR-NH2 [compound 86]
- MIC E. coli BL21 A1 (E. coli BL21 A1; BL21, 20 h): 32 µg/mL
- MIC M. luteus 10240 (M. luteus 10240; 10240, 20 h): 8 µg/mL

Molecule: H-VDKPPYLARPRPPRRIYNR-NH2 [compound 36]
- MIC E. coli BL21 A1 (E. coli BL21 A1; BL21, 20 h): 32 µg/mL
- MIC M. luteus 10240 (M. luteus 10240; 10240, 20 h): 8 µg/mL

Molecule: CC[C@@H](C)[C@@H](NC(=O)[C@@H](Cc1ccc(O)cc1)NC(=O)[C@@H](CC(N)=O)NC(=O)[C@H](N)CCCN)C(=O)N[C@H](CCCN)C(=O)N[C@H](CCCNC(=N)N)C(=O)N1CCC[C@@H]1C(=O)N1CCC[C@@H]1C(=O)N[C@H](CCCNC(=N)N)C(=O)N1CCC[C@@H]1C(=O)N[C@H](CCCNC(=N)N)C(=O)N1CCC[C@@H]1C(=O)N[C@H](CC(C)C)C(=O)N[C@H](Cc1ccc(O)cc1)C(=O)N1CCC[C@@H]1C(=O)N1CCC[C@@H]1C(=O)N[C@H](CCCCN)C(=O)N[C@H](CC(=O)O)C(=O)N[C@@H](C(N)=O)C(C)C [compound 118] (H-[dOrn][dN][dY][dI][dOrn][dR][dP][dP][dR][dP][dR][dP][dL][dY][dP][dP][dK][dD][dV]-NH2)
- MIC E. coli BL21 A1 (E. coli BL21 A1; BL21, 20 h): 256 µg/mL (≈ 111 µM)
- MIC M. luteus 10240 (M. luteus 10240; 10240, 20 h): 32 µg/mL (≈ 13.9 µM)

Molecule: H-VDKPPYLPRPRPPARIYNR-NH2 [compound 42]
- MIC E. coli BL21 A1 (E. coli BL21 A1; BL21, 20 h): 16 µg/mL
- MIC M. luteus 10240 (M. luteus 10240; 10240, 20 h): 32 µg/mL

Molecule: H-VDKPPYLPRPKPPRRIYNR-NH2 [compound 7]
- MIC E. coli BL21 A1 (E. coli BL21 A1; BL21, 20 h): 8 µg/mL
- MIC M. luteus 10240 (M. luteus 10240; 10240, 20 h): 16 µg/mL

Molecule: H-VDKPPYLPAPRPPRRIYNR-NH2 [compound 37]
- MIC E. coli BL21 A1 (E. coli BL21 A1; BL21, 20 h): 32 µg/mL
- MIC M. luteus 10240 (M. luteus 10240; 10240, 20 h): 32 µg/mL

Molecule: H-VDKPPYAPRPRPPRRIYNR-NH2 [compound 35]
- MIC E. coli BL21 A1 (E. coli BL21 A1; BL21, 20 h): 128 µg/mL
- MIC M. luteus 10240 (M. luteus 10240; 10240, 20 h): 16 µg/mL

Molecule: CC[C@H](C)[C@H](NC(=O)[C@H](CCCN)NC(=O)[C@H](CCCNC(=N)N)NC(=O)[C@@H]1CCCN1C(=O)[C@@H]1CCCN1C(=O)[C@H](CCCNC(=N)N)NC(=O)[C@@H]1CCCN1C(=O)[C@H](CCCNC(=N)N)NC(=O)[C@@H]1CCCN1C(=O)[C@H](CC(C)C)NC(=O)[C@H](Cc1ccc(O)cc1)NC(=O)[C@@H]1CCCN1C(=O)[C@@H]1CCCN1C(=O)[C@H](CCCCN)NC(=O)[C@H](CC(=O)O)NC(=O)[C@@H](N)C(C)C)C(=O)N[C@@H](Cc1ccc(O)cc1)C(=O)N[C@@H](CC(N)=O)C(=O)N[C@@H](CNC(=N)N)C(N)=O [compound 69] (H-VDKPPYLPRPRPPR[Orn]IYN[Agp]-NH2)
- MIC E. coli BL21 A1 (E. coli BL21 A1; BL21, 20 h): 4 µg/mL (≈ 1.72 µM)
- MIC M. luteus 10240 (M. luteus 10240; 10240, 20 h): 4 µg/mL (≈ 1.72 µM)

Molecule: H-VDKPPYLPRPRAPRRIYNR-NH2 [compound 40]
- MIC E. coli BL21 A1 (E. coli BL21 A1; BL21, 20 h): 16 µg/mL
- MIC M. luteus 10240 (M. luteus 10240; 10240, 20 h): 8 µg/mL

Molecule: CC[C@H](C)[C@H](NC(=O)[C@H](CCCNC(=N)N)NC(=O)[C@H](CCCNC(=N)N)NC(=O)[C@@H]1CCCN1C(=O)[C@@H]1CCCN1C(=O)[C@H](CCCNC(=N)N)NC(=O)[C@@H]1CCCN1C(=O)[C@H](CCCNC(=N)N)NC(=O)[C@@H]1CCCN1C(=O)[C@H](CC(C)C)NC(=O)[C@H](Cc1ccc(O)cc1)NC(=O)[C@@H]1CCCN1C(=O)[C@@H]1CCCN1C(=O)[C@H](CCCCN)NC(=O)[C@H](CC(=O)O)NC(=O)[C@H](CCCN)NC(=O)[C@@H](CS)NC(=O)[C@H](C)N)C(=O)N[C@@H](Cc1ccc(O)cc1)C(=O)N[C@@H](CC(N)=O)C(=O)N[C@@H](CCCNC(=N)N)C(N)=O [compound 83] (H-A[dC][Orn]DKPPYLPRPRPPRRIYNR-NH2)
- MIC E. coli BL21 A1 (E. coli BL21 A1; BL21, 20 h): 16 µg/mL (≈ 6.2 µM)
- MIC M. luteus 10240 (M. luteus 10240; 10240, 20 h): 16 µg/mL (≈ 6.2 µM)

Molecule: H-VDKPPYLPRPNPPRRIYNR-OH [compound 11]
- MIC E. coli BL21 A1 (E. coli BL21 A1; BL21, 20 h): 64 µg/mL
- MIC M. luteus 10240 (M. luteus 10240; 10240, 20 h): 64 µg/mL

Molecule: 95 ({RQIKIWFQNRRMKWKKC-Ac}-GNNRPVYIPQPRPPHPRL-OH; not fully specified (bridges); printed as RQIKIWFQNRRMKWKKC-(CH2CO-GNNRPVYIPQPRPPHPRL-OH)-; also: N-terminal CH2CO attached to Cys side chain of RQIKIWFQNRRMKWKKC-OH) [compound 95]
- MIC E. coli BL21 A1 (E. coli BL21 A1; 1% TSB, 20 h at 37° C.): 8 µg/mL
- MIC M. luteus 10240 (M. luteus 10240; 1% TSB, 20 h at 37° C.): 8 µg/mL

Molecule: CC[C@H](C)[C@H](NC(=O)[C@H](CCCNC(=N)N)NC(=O)[C@H](CCCNC(=N)N)NC(=O)[C@@H]1CCCN1C(=O)[C@@H]1CCCN1C(=O)[C@H](CCCNC(=N)N)NC(=O)[C@@H]1CCCN1C(=O)[C@H](CCCNC(=N)N)NC(=O)[C@@H]1CCCN1C(=O)[C@H](CC(C)C)NC(=O)[C@H](Cc1ccc(O)cc1)NC(=O)[C@@H]1CCCN1C(=O)[C@@H]1CCCN1C(=O)[C@H](CCCCN)NC(=O)[C@H](CC(=O)O)NC(=O)[C@@H](NC(=O)[C@@H](CS)NC(=O)[C@H](C)N)C(C)C)C(=O)N[C@@H](Cc1ccc(O)cc1)C(=O)N[C@@H](CC(N)=O)C(=O)N[C@@H](CCCNC(=N)N)C(=O)O [compound 80] (H-A[dC]VDKPPYLPRPRPPRRIYNR-OH)
- MIC E. coli BL21 A1 (E. coli BL21 A1; BL21, 20 h): >256 µg/mL
- MIC M. luteus 10240 (M. luteus 10240; 10240, 20 h): 16 µg/mL (≈ 6.24 µM)

Molecule: H-VDKPPYLPRPRPPRRIYPQPRPPHPRL-NH2 [compound 49]
- MIC E. coli BL21 A1 (E. coli BL21 A1; BL21, 20 h): 4 µg/mL
- MIC M. luteus 10240 (M. luteus 10240; 10240, 20 h): 4 µg/mL

Molecule: CC[C@H](C)[C@H](NC(=O)[C@H](CCCNC(=N)N)NC(=O)[C@H](CCCNC(=N)N)NC(=O)[C@@H]1CCCN1C(=O)[C@@H]1CCCN1C(=O)[C@H](CCCNC(=N)N)NC(=O)[C@@H]1CCCN1C(=O)[C@H](CCCNC(=N)N)NC(=O)[C@@H]1CCCN1C(=O)[C@H](CC(C)C)NC(=O)[C@H](Cc1ccc(O)cc1)NC(=O)[C@@H]1CCCN1C(=O)[C@@H]1CCCN1C(=O)[C@H](CCCCN)NC(=O)[C@H](CC(=O)O)NC(=O)[C@@H](N)C(C)C)C(=O)N[C@@H](Cc1ccc(O)cc1)C(=O)N[C@@H](CC(N)=O)C(=O)N[C@@H](CCCNC(=N)N[N+](=O)[O-])C(N)=O [compound 55] (H-VDKPPYLPRPRPPRRIYN[Arg(NO2)]-NH2)
- MIC E. coli BL21 A1 (E. coli BL21 A1; BL21, 20 h): 8 µg/mL (≈ 3.29 µM)
- MIC M. luteus 10240 (M. luteus 10240; 10240, 20 h): 16 µg/mL (≈ 6.57 µM)

Molecule: H-VDRPPYLPRPRPPRRIYNR-NH2 [compound 76]
- MIC E. coli BL21 A1 (E. coli BL21 A1; BL21, 20 h): 16 µg/mL
- MIC M. luteus 10240 (M. luteus 10240; 10240, 20 h): 8 µg/mL

Molecule: VDKGSYLPRPTPPRPIYNRN-NH2 [compound 91]
- MIC E. coli BL21 A1 (E. coli BL21 A1; BL21, 20 h): 16 µg/mL
- MIC M. luteus 10240 (M. luteus 10240; 1% TSB, 20 h at 37° C.): 128 µg/mL
